Data taken from patent US10500179B2, “Glycine for use in tolerance induction in allergic patients” (N. V. Nutricia, priority 2015, dated 2019).

Experiments:
[1] = system: human peripheral blood mononuclear cells (PBMCs); assay: LPS induced TNF-α synthesis by human PBMCs (ELISA); assay type: cell-based; settings: FIG. 3
From the text: The next experiment done by the inventor relates to the question whether amino acids are able to enhance immune effects of free glycine. To investigate this, human peripheral blood mononuclear cells (PBMCs) were stimulated with lipopolysaccharide (LPS) in the presence of free glycine in combination with different levels of free glutamine In short: Human PBMCs were obtained from buffy coats supplied by the blood bank and prepared by Ficoll gradient centrifugation according to standard methods. The recovered PBMCs were washed with PBS and cultured in RPMI-1640 containing, penicillin, streptomycin and 5% Fetal call serum (FCS), 1.5E5 cells/well (96-wells culture plate). The cells were stimulated with LPS (E. coli, 055:B5, 10 ng/ml) for 20 hr after 1 hr pre-incubation with different levels of glycine in combination with different levels of glutamine. The tested levels of glycine and glutamine were also tested separately. TNF-α levels were detected in the supernatant of the cells using an ELISA kit.

[2] = system: Female C3H/HeOuJ mice sensitized against bovine whey protein; settings: oral gavage 50 or 100 mg/mouse 24 and 4 hours before sensitization
[3] = system: RBL-2H3 cells; settings: glycine concentration series from 500 μg/ml, 20 hours incubation, concentration dependent
Method: RBL-2H3 cells were sensitized by 100 ng/ml mouse IgE α-dinitrophenyl in culture medium (DMEM with 10% FBS and 1% penicillin/[…]) and plate out 100 μl/well in a 96-well flat bottom plate. After 18 hrs of culturing at 37° C. with 5% CO2, the cells were washed 4 times with 200 μl Tyrode's buffer (130 mM NaCl, […], 1.4 mM CaCl2, 1 mM MgCl2, 5.6 mM glucose, 10 mM HEPES, and 0.1% bovine serum albumin in distilled water, pH 7.4). 25 μl glycine in a concentration series starting form 500 μg/ml and diluted 1:1 in Tyrode's buffer (component), 25 μl Tyrode's buffer (controls) or 25 μl quercetin 100 μM (positive control) were added to the cells. 25 μl of DNP-BSA (100 ng/ml) and 50 μl Tyrode's buffer were added to each component well. After 20 hours incubation at 37° C. with 5% CO2 90 μl of the cells supernatant was collected and stored at −80° C. for cytokine analysis by multiplex bead immunoassay.

Row | Structure (SMILES) | effect of glutamine on glycine inhibition of LPS induced TNF-α synthesis ([1]; glutamine combined with glycine at specific ratios, LPS 10 ng/ml 20 hr) | allergic skin response (ear swelling) after intradermal whey injection ([2]; effect concentration dependent, FIG. 2A) | mMCP1 release (by intestinal mast cells) after an oral allergen challenge ([2]; serum one hour after 50 mg whey oral challenge, FIG. 2B) | production of whey-specific IgE ([2]; serum, ELISA, FIG. 2C) | crosslinking induced TNFα production ([3]; FIG. 1A) | crosslinking induced IL-4 production ([3]; FIG. 1B) | crosslinking induced IL-13 production ([3]; FIG. 1C) | LPS induced TNF-α synthesis by PBMCs ([1]; LPS 10 ng/ml for 20 hr after 1 hr pre-incubation)
1 | NC(=O)CC[C@H](N)C(=O)O [glutamine] | enhanced this effect synergistically | – | – | – | – | – | – | –
2 | NCC(=O)O [Glycine, glycine] | – | inhibits the allergy development | inhibits allergy development | inhibits | inhibits | inhibits | inhibits | inhibited
